# Test results from patent US20020019332A1, “METHOD OF INDUCING APOPTOSIS IN B-LYMPHOCYTES” (priority 1999, published 2002).
# Key:
# mature B cells = experiment: Apoptosis assay (propidium iodide flow cytometry) in mature B cells; format: cell-based, mouse; conditions: inhibitor added 15 minutes before stimulation with anti-Ig
# Experimental: Purified populations of either immature B cells obtained from the spleens of day 14 autoreconstituting mice or mature B cells isolated from spleens of normal adult mice were incubated in the absence or presence of 50 μg/ml of rabbit anti-mouse IgM F(ab′)2 fragments (anti-Ig) for 16-18 hours. […] Similar results were observed using a modified TUNEL technique that detects nicked DNA.
# The role of PKC in preventing BCR-induced apoptosis of immature B cells was also examined using inhibitors of PKC.
# Purified B cells were cultured under various conditions overnight in either sterile 2 ml click-cap tubes or 96-well plates. PKC inhibitors were added 15 minutes before the addition of the stimulant. After 14-18 hours in the case of immature B cells or 24 hours in the case of mature B cells, the cells were harvested and washed in PBS containing 2% FCS. Cells were fixed and permeabilized by resuspending in 70% ethanol made in 1xPBS and incubating at −20° C. for at least 2 hours. […] The cells were stained at 4° C. overnight and analyzed by flow cytometry on a Becton Dickinson FACScan using LYSYS II software. The mean percentages of apoptotic cells and the standard errors for each culture condition were determined and significance was assessed by the Student's t-test.
# immature B cells = experiment: Apoptosis assay (relative DNA content, propidium iodide flow cytometry) in immature B cells; format: cell-based, mouse; conditions: late-stage immature B cells, 18 hours, anti-IgM F(ab′)2 50 μg/ml plus phorbol ester (PMA 10 ng/ml)
# Experimental: Experiments were performed using an in vitro model system that makes use of an immature population of B cells purified from the spleens of adult mice after sublethal irradiation. Immature B cells obtained from these autoreconstituting mice are phenotypically immature and respond identically to immature B cells purified from either […] bone marrow (Norvell, A. et al. 1995. J. Immunol. 154:4404; Norvell, A. and J. G. Monroe. 1996. J. Immunol. 156:1328). This homogeneous population of immature B cells is devoid of pre-B cells and mature B cells found in neonatal spleen and adult bone marrow, respectively. Further, unlike the immature B cells purified from either bone marrow or neonatal spleen, immature B cells from autoreconstituting mice can be isolated without positive selection on anti-Ig panning plates. Since large numbers of unmanipulated immature B cells can be obtained, autoreconstituting B cells are an ideal system for analyzing biochemical events responsible for tolerogenic signal transduction. The B cells isolated from these mice represent a transitional stage of development in which cells are subject to negative selection. This in vitro system uses apoptosis as an indicator of negative selection.
# Purified populations of either immature B cells obtained from the spleens of day 14 autoreconstituting mice or mature B cells isolated from spleens of normal adult mice were incubated in the absence or presence of 50 μg/ml of rabbit anti-mouse IgM F(ab′)2 fragments (anti-Ig) for 16-18 hours. […]
# The ability of PMA to protect immature B cells from BCR-induced apoptosis was assessed in the presence of the same two inhibitors. […]
# Purified B cells were cultured under various conditions overnight in either sterile 2 ml click-cap tubes or 96-well plates. […] The cells were stained at 4° C. overnight and analyzed by flow cytometry on a Becton Dickinson FACScan using LYSYS II software. The mean percentages of apoptotic cells and the standard errors for each culture condition were determined and significance was assessed by the Student's t-test.
# [1] = test system: BCR-induced increase in intracellular calcium; experiment: Measurement of intracellular calcium in Fura-2-AM loaded B cells; format: cell-based, mouse
# Experimental: Since PMA was capable of rescuing mature, PKC-depleted B cells from anti-Ig-induced apoptosis, experiments were performed to assess whether PMA was capable of desensitizing the BCR in these cells.
# Purified B cells were washed in HBSS without phenol red and supplemented with 2% FCS. For loading, cells were resuspended in HBSS without phenol red and supplemented with 10% FCS. Fura-2 acetoxymethyl ester was added to a final concentration of 1 μM from a 1 mM stock made in DMSO. Cells were incubated in light tight tubes for 30 minutes at 30° C. with occasional inversion. Cells were then washed twice with HEBSS+2% FCS and resuspended at a concentration of 3.3×10^7/ml in HBSS+10% FCS. Fluorometric analysis of dyed cells was performed using a luminescence spectrometer. Excitation was at 340 nm and 380 nM with emission monitored at 510 nm. B cells were diluted to 2×10^6/ml in HBSS and equilibrated for 2 minutes, at which time a baseline spectrum was read. The cells were stimulated with rabbit anti-mouse IgM F(ab′)2 fragments (50 μg/ml) and the response measured. Cells were then lysed with Triton X-100 and Fmax and Fmin were measured by the chelation of extracellular calcium with the addition of EGTA. Calcium traces were calculated by the Intracellular Biochemistry Application (Perkin-Elmer) using these values.
# [2] = test system: PKC-depleted mature B cells; experiment: Modified TUNEL analysis of PKC-depleted mature B cells; format: cell-based, mouse
# Experimental: To assess the role of PKC activation in the prevention of antigen-mediated apoptosis, the ability of anti-Ig to induce apoptosis in PKC-depleted mature B cells was determined. […] After overnight treatment, the cells were washed expansively and subjected to an apoptotis analysis in which B cells were recultured with medium alone, anti-Ig, anti-Ig and PMA or anti-Ig and 4αPDD. After 8 hours incubation, the cells were harvested and subjected to a modified TUNEL analysis. […]. After PKC depletion, mature B cells were specifically susceptible to anti-Ig-mediated apoptosis.
# In some cases, the frequency of apoptotic cells was quantitated using a modified TUNEL assay. Briefly, 1×10^6 cells were fixed in 2.5% formaldehyde in 1xPBS. The fixed cells were permeabilized in 0.2 ml 0.1% Triton/0.1% citrate for 2 minutes on ice. After washing, cells were incubated in 50 μl of nick translation reagent, which consists of 5 μl nick translation buffer (500 mM Tris, pH 7.5; 100 mM MgSO4; 1 mM DTT), 0.03 μl of fluorescein-dUTP (1 nmol/μl), 1 µl dTTP (0.7 nmol/μl), 1 μl each of dATP, dCTP, dGTP (1 nmol/μl) and 0.1 μl DNA polymerase (5 U/μl) and incubated for at least 1 hour at 37° C. Cells were then washed and analyzed by flow cytometry.
# PKCδ = biological target: T1, PKCδ (Mus musculus, UniProt P28867); experiment: PKC depletion monitored by Western blot analysis; format: cell-based; conditions: PDBu-treated B cells
# T1 construct: endogenous in cells; host or cells: primary mature splenic B cells of mice
# Experimental: (§1) Therefore, experiments were performed to determine if PKC-depleted mature B cells were susceptible to BCR-induced apoptosis. […] PKC depletion in PDBu- or mock-treated cultures was monitored by Western blot analysis. […] PKC levels in unstimulated immature and mature cells were quite similar, making it unlikely that differential regulation of PKC activity would occur at the level of expression of the individual isoenzyes.
# (§2) For analysis of postnuclear extracts, 1×10^7 cells were lysed in 50 μl of Triton-X lysis buffer (0.1% Triton-X-100; 100 mM Tris, pH 8.0; 10.8 μg/ml aprotinin; 1.5 μg/ml each of leupeptin, pepstatin A, chymostatin, and antipain; 2 mM phenylmethylsulfonyl fluoride; 1 mM N-ethylmaleimide) on ice for 30 minutes. Lysates were microcentrifuged at 14,000× g at 4° C. for 10 minutes to remove the Triton-X insoluble fraction. Lysates from equivalent cell numbers were fractionated on SDS-PAGE gels and electroblotted onto Immobilon (Millipore, Bedford, Mass.). Blots were incubated overnight in Tris-buffered saline with Tween-TBST (10 mM Tris, pH 8.0; 137 mM NaCl; 0.05% Tween 20) plus 2% bovine serum albumin to block nonspecific binding. Membranes were washed twice with TBST and probed with the appropriate antibody solutions for 90 minutes, then washed 3 times in TBST, followed by secondary incubation with the appropriate horseradish peroxidase-conjugated reagents. Three washes with TBST were conducted before detection with an enhanced chemiluminescence system.
# PKCε = biological target: T2, PKCε (Mus musculus, UniProt P16054); experiment: PKC depletion monitored by Western blot analysis; format: cell-based; conditions: PDBu-treated B cells
# T2 construct: endogenous in cells; host or cells: primary mature splenic B cells of mice
# T2 sequence (P16054 1-737): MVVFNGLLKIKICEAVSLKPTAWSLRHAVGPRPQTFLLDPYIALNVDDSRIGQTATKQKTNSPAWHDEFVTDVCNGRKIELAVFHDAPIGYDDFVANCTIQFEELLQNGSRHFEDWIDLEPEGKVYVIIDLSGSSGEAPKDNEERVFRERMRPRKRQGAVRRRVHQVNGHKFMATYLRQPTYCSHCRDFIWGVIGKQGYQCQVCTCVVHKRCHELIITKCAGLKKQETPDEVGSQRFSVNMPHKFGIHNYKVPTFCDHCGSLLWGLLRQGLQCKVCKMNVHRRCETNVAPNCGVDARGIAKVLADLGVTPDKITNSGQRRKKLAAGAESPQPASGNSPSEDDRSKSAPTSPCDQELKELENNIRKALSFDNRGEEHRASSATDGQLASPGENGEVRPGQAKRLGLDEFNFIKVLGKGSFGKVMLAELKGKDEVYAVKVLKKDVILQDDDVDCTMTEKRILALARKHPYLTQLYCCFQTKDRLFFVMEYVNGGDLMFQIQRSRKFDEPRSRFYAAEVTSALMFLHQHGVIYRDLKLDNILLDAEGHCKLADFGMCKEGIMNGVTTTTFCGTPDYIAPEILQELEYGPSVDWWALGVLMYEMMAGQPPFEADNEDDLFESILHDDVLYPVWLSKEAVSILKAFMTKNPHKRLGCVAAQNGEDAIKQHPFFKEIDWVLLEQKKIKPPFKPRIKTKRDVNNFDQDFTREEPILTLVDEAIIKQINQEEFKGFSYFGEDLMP
# Experimental: as §1, §2
# PKCβ = biological target: T3, PKCβ (Mus musculus, UniProt P68404); experiment: PKC depletion monitored by Western blot analysis; format: cell-based; conditions: PDBu-treated B cells
# T3 construct: endogenous in cells; host or cells: primary mature splenic B cells of mice
# Experimental: as §1, §2
# T1 sequence (P28867 whole entry): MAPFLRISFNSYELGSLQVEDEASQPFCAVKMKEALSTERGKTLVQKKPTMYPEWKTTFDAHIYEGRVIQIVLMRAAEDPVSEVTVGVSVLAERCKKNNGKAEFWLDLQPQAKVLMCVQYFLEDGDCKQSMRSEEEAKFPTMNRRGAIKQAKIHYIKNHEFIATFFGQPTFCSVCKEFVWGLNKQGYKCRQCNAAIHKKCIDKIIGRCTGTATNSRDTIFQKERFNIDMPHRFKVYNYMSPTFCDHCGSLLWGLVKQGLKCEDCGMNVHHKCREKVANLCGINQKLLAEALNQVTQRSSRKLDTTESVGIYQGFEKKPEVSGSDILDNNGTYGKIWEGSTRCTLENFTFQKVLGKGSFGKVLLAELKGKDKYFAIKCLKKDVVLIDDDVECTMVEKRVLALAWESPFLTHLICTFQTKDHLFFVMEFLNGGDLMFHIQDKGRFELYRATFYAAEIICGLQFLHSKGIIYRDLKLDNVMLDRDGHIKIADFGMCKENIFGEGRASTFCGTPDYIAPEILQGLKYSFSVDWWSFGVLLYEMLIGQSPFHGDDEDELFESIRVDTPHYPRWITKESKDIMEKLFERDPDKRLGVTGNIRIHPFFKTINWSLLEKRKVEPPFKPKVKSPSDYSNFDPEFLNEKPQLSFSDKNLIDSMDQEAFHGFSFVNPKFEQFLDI
# T3 sequence (P68404 whole entry): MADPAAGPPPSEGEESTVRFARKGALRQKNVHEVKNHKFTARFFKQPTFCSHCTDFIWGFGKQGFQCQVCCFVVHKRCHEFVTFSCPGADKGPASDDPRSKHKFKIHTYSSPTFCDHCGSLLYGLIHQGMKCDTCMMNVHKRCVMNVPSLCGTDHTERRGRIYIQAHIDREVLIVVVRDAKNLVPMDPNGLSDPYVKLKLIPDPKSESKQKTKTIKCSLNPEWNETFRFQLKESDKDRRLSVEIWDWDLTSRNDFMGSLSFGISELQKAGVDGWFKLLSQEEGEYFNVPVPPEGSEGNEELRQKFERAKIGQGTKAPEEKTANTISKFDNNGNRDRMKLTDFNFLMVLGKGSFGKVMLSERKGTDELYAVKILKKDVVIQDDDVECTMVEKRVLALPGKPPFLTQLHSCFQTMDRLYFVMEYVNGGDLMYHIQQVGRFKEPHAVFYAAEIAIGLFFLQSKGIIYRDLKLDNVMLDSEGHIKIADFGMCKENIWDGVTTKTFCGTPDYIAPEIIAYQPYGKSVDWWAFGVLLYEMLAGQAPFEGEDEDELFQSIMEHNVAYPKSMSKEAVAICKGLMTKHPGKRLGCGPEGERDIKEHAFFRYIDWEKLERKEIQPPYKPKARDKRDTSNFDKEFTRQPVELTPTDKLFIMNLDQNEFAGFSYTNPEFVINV
structure (smiles),measurement,setting,value
CN(C)CCCn1cc(C2=C(c3c[nH]c4ccccc34)C(=O)NC2=O)c2ccccc21 [bisindoylmaleimide I],induction of apoptosis,mature B cells,led to induction of apoptosis
CCCCCCCCCC(=O)O[C@@H]1[C@@H](C)[C@@]2(O)[C@@H](C=C(CO)C[C@]3(O)C(=O)C(C)=C[C@@H]23)[C@@H]2C(C)(C)[C@]12OC(=O)CCCCCCCCC [4βPDD],protection (rescue) from anti-IgM-induced apoptosis,immature B cells,did not rescue cells
CCCCCCCCCC(=O)O[C@@H]1[C@@H](C)[C@@]2(O)[C@@H](C=C(CO)C[C@@]3(O)C(=O)C(C)=C[C@@H]23)[C@@H]2C(C)(C)[C@]12OC(=O)CCCCCCCCC [4αPDD],protection (rescue) from anti-IgM-induced apoptosis,immature B cells,efficiently rescued cells
CCCCCCCCCCCCCC(=O)O[C@@H]1[C@@H](C)[C@@]2(O)[C@@H](C=C(CO)C[C@]3(O)C(=O)C(C)=C[C@@H]23)[C@@H]2C(C)(C)[C@]12OC(C)=O [PMA],protection (rescue) from anti-IgM-induced apoptosis,immature B cells,significant protection from anti-IgM-induced apoptosis
same,effect on BCR-induced calcium flux,[1]; PDBu-treated cells,did not alter the BCR-induced calcium flux
same,effect on BCR-induced increase in intracellular calcium,[1]; mock-treated B cells,efficiently reduced the BCR-induced increase in intracellular calcium
same,rescue from anti-Ig-induced apoptosis,"[2]; PDBu-treated (PKC-depleted) mature B cells, anti-Ig and PMA, 8 hours",still capable of rescuing the cells from anti-Ig-induced apoptosis
CCCC(=O)O[C@@H]1[C@@H](C)[C@@]2(O)[C@@H](C=C(CO)C[C@]3(O)C(=O)C(C)=C[C@@H]23)[C@@H]2C(C)(C)[C@]12OC(=O)CCC [PDBu],depletion of PKCδ,PKCδ,"also depleted, although not as efficiently"
same,depletion of PKCε,PKCε,"also depleted, although not as efficiently"
same,depletion of PKCβ,PKCβ,efficiently depleted
same,number of apoptotic cells after anti-Ig,"[2]; mature B cells cultured overnight with 100 ng/ml PDBu, washed, recultured 8 hours with anti-Ig",significant and striking increase in the number of apoptotic cells
CN(C)C[C@H]1CCn2c(c(C3=C(c4cn(C)c5ccccc45)C(=O)NC3=O)c3ccccc32)C1 [Ro-32-0432],induction of apoptosis,mature B cells,led to induction of apoptosis
